Source: PubChem BioAssay (NCI)
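The compound was tested at five concentrations on cells cultured in 96-well plates, with a 48-hour exposure period. At the GI50, growth is halved. TGI denotes the concentration required for complete inhibition of growth.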

Assays:
Assay in all cases: DTP human tumour cell line panel, 48 h
NCI/ADR-RES ovarian = test system: NCI/ADR-RES ovarian
SR leukemia = test system: SR leukemia
PC-3 prostate = test system: PC-3 prostate
SK-MEL-5 melanoma = test system: SK-MEL-5 melanoma
SW-620 colon = test system: SW-620 colon
CCRF-CEM leukemia = test system: CCRF-CEM leukemia
HS 578T breast = test system: HS 578T breast
HT29 colon = test system: HT29 colon
NCI-H522 lung = test system: NCI-H522 lung
SK-OV-3 ovarian = test system: SK-OV-3 ovarian
MCF7 breast = test system: MCF7 breast
SK-MEL-28 melanoma = test system: SK-MEL-28 melanoma
NCI-H460 lung = test system: NCI-H460 lung
SNB-75 CNS = test system: SNB-75 CNS
SF-295 CNS = test system: SF-295 CNS
ACHN renal = test system: ACHN renal
HOP-62 NSCLC = test system: HOP-62 NSCLC
MALME-3M melanoma = test system: MALME-3M melanoma
MDA-MB-231 breast = test system: MDA-MB-231 breast
HOP-92 NSCLC = test system: HOP-92 NSCLC
RXF 393 renal = test system: RXF 393 renal
U251 CNS = test system: U251 CNS
NCI-H226 lung = test system: NCI-H226 lung
UACC-257 melanoma = test system: UACC-257 melanoma
EKVX NSCLC = test system: EKVX NSCLC
SN12C renal = test system: SN12C renal
HL-60(TB) leukemia = test system: HL-60(TB) leukemia
UO-31 renal = test system: UO-31 renal
MOLT-4 leukemia = test system: MOLT-4 leukemia
CAKI-1 renal = test system: CAKI-1 renal
COLO 205 colon = test system: COLO 205 colon
TK-10 renal = test system: TK-10 renal
K-562 leukemia = test system: K-562 leukemia
HCT-15 colon = test system: HCT-15 colon
A549 NSCLC = test system: A549 NSCLC
OVCAR-5 ovarian = test system: OVCAR-5 ovarian
OVCAR-8 ovarian = test system: OVCAR-8 ovarian
SK-MEL-2 melanoma = test system: SK-MEL-2 melanoma
NCI-H23 lung = test system: NCI-H23 lung
SNB-19 CNS = test system: SNB-19 CNS
OVCAR-4 ovarian = test system: OVCAR-4 ovarian
HCC-2998 colon = test system: HCC-2998 colon
M14 melanoma = test system: M14 melanoma
IGROV1 ovarian = test system: IGROV1 ovarian
UACC-62 melanoma = test system: UACC-62 melanoma
MDA-MB-435 = test system: MDA-MB-435
A498 renal = test system: A498 renal
OVCAR-3 ovarian = test system: OVCAR-3 ovarian
SF-268 CNS = test system: SF-268 CNS
BT-549 breast = test system: BT-549 breast
KM12 colon = test system: KM12 colon
SF-539 CNS = test system: SF-539 CNS
T-47D breast = test system: T-47D breast
DU-145 prostate = test system: DU-145 prostate
RPMI-8226 leukemia = test system: RPMI-8226 leukemia
LOX IMVI melanoma = test system: LOX IMVI melanoma
786-0 renal = test system: 786-0 renal
HCT-116 colon = test system: HCT-116 colon

SMILES: NC(=O)c1ncn2c1CNC(=O)C2
- TGI (NCI/ADR-RES ovarian): > 100 µM
- TGI (SR leukemia): > 100 µM
- TGI (PC-3 prostate): > 100 µM
- TGI (SK-MEL-5 melanoma): > 100 µM
- TGI (SW-620 colon): > 100 µM
- TGI (CCRF-CEM leukemia): > 100 µM
- TGI (HS 578T breast): > 100 µM
- TGI (HT29 colon): > 100 µM
- TGI (NCI-H522 lung): > 100 µM
- TGI (SK-OV-3 ovarian): > 100 µM
- TGI (MCF7 breast): > 100 µM
- TGI (SK-MEL-28 melanoma): > 100 µM
- TGI (NCI-H460 lung): > 100 µM
- TGI (SNB-75 CNS): > 100 µM
- TGI (SF-295 CNS): > 100 µM
- TGI (ACHN renal): > 100 µM
- TGI (HOP-62 NSCLC): > 100 µM
- TGI (MALME-3M melanoma): > 100 µM
- TGI (MDA-MB-231 breast): > 100 µM
- TGI (HOP-92 NSCLC): > 100 µM
- TGI (RXF 393 renal): > 100 µM
- TGI (U251 CNS): > 100 µM
- TGI (NCI-H226 lung): > 100 µM
- TGI (UACC-257 melanoma): > 100 µM
- TGI (EKVX NSCLC): > 100 µM
- TGI (SN12C renal): > 100 µM
- TGI (HL-60(TB) leukemia): > 100 µM
- TGI (UO-31 renal): > 100 µM
- TGI (MOLT-4 leukemia): > 100 µM
- TGI (CAKI-1 renal): > 100 µM
- TGI (COLO 205 colon): > 100 µM
- TGI (TK-10 renal): > 100 µM
- TGI (K-562 leukemia): > 100 µM
- TGI (HCT-15 colon): > 100 µM
- TGI (A549 NSCLC): > 100 µM
- TGI (OVCAR-5 ovarian): > 100 µM
- TGI (OVCAR-8 ovarian): > 100 µM
- TGI (SK-MEL-2 melanoma): > 100 µM
- TGI (NCI-H23 lung): > 100 µM
- TGI (SNB-19 CNS): > 100 µM
- TGI (OVCAR-4 ovarian): > 100 µM
- TGI (HCC-2998 colon): > 100 µM
- TGI (M14 melanoma): > 100 µM
- TGI (IGROV1 ovarian): > 100 µM
- TGI (UACC-62 melanoma): > 100 µM
- TGI (MDA-MB-435): > 100 µM
- TGI (A498 renal): > 100 µM
- TGI (OVCAR-3 ovarian): > 100 µM
- TGI (SF-268 CNS): > 100 µM
- TGI (BT-549 breast): > 100 µM
- TGI (KM12 colon): > 100 µM
- TGI (SF-539 CNS): > 100 µM
- TGI (T-47D breast): > 100 µM
- TGI (DU-145 prostate): > 100 µM

SMILES: Cc1nc2ccc(Nc3nc(Cl)nc(Nc4ccc(F)cc4)n3)cc2n1Cc1ccccc1
- GI50 (NCI/ADR-RES ovarian): 4.11 µM
- TGI (NCI/ADR-RES ovarian): 18.5 µM
- GI50 (SR leukemia): 3.79 µM
- TGI (SR leukemia): 39.5 µM
- GI50 (PC-3 prostate): 7.11 µM
- TGI (PC-3 prostate): 32.9 µM
- GI50 (SK-MEL-5 melanoma): 4.19 µM
- TGI (SK-MEL-5 melanoma): 15.1 µM
- GI50 (SW-620 colon): 4.95 µM
- TGI (SW-620 colon): 35 µM
- GI50 (CCRF-CEM leukemia): 3.85 µM
- TGI (CCRF-CEM leukemia): > 100 µM
- GI50 (HS 578T breast): 10.9 µM
- TGI (HS 578T breast): > 100 µM
- GI50 (RPMI-8226 leukemia): 2.05 µM
- TGI (RPMI-8226 leukemia): 5.09 µM
- GI50 (NCI-H522 lung): 2.51 µM
- TGI (NCI-H522 lung): 6.85 µM
- GI50 (SK-OV-3 ovarian): 18.1 µM
- TGI (SK-OV-3 ovarian): 66.8 µM
- GI50 (MCF7 breast): 2.71 µM
- TGI (MCF7 breast): 12.4 µM
- GI50 (SK-MEL-28 melanoma): 3.15 µM
- TGI (SK-MEL-28 melanoma): 10.5 µM
- GI50 (NCI-H460 lung): 4.23 µM
- TGI (NCI-H460 lung): 17.8 µM
- GI50 (SNB-75 CNS): 10.2 µM
- TGI (SNB-75 CNS): 26.2 µM
- GI50 (SF-295 CNS): 1.9 µM
- TGI (SF-295 CNS): 4.53 µM
- GI50 (ACHN renal): 3 µM
- TGI (ACHN renal): 10.4 µM
- GI50 (HOP-62 NSCLC): 10.7 µM
- TGI (HOP-62 NSCLC): 30.4 µM
- GI50 (MALME-3M melanoma): 11.4 µM
- TGI (MALME-3M melanoma): 24.6 µM
- GI50 (MDA-MB-231 breast): 3.99 µM
- TGI (MDA-MB-231 breast): 20.4 µM
- GI50 (LOX IMVI melanoma): 3.59 µM
- TGI (LOX IMVI melanoma): 14.1 µM
- GI50 (HOP-92 NSCLC): 2.3 µM
- TGI (HOP-92 NSCLC): 9.23 µM
- GI50 (RXF 393 renal): 4.45 µM
- TGI (RXF 393 renal): 21.5 µM
- GI50 (NCI-H226 lung): 4.14 µM
- TGI (NCI-H226 lung): 21.6 µM
- GI50 (UACC-257 melanoma): 11.8 µM
- TGI (UACC-257 melanoma): 28.9 µM
- GI50 (SN12C renal): 5.22 µM
- TGI (SN12C renal): 38.3 µM
- GI50 (HL-60(TB) leukemia): 3.02 µM
- TGI (HL-60(TB) leukemia): 7.6 µM
- GI50 (UO-31 renal): 2.85 µM
- TGI (UO-31 renal): 12.2 µM
- GI50 (MOLT-4 leukemia): 3.92 µM
- TGI (MOLT-4 leukemia): 18.1 µM
- GI50 (CAKI-1 renal): 7.94 µM
- TGI (CAKI-1 renal): 35.2 µM
- GI50 (COLO 205 colon): 11.2 µM
- TGI (COLO 205 colon): 26.5 µM
- GI50 (TK-10 renal): 18.1 µM
- TGI (TK-10 renal): 44.4 µM
- GI50 (K-562 leukemia): 3.43 µM
- TGI (K-562 leukemia): > 100 µM
- GI50 (HCT-15 colon): 2.92 µM
- TGI (HCT-15 colon): 10.4 µM
- GI50 (A549 NSCLC): 11.3 µM
- TGI (A549 NSCLC): 30.9 µM
- GI50 (OVCAR-5 ovarian): 14.7 µM
- TGI (OVCAR-5 ovarian): 44.1 µM
- GI50 (OVCAR-8 ovarian): 3.25 µM
- TGI (OVCAR-8 ovarian): 14.1 µM
- GI50 (SK-MEL-2 melanoma): 4.15 µM
- TGI (SK-MEL-2 melanoma): 15 µM
- GI50 (NCI-H23 lung): 7.16 µM
- TGI (NCI-H23 lung): 25.2 µM
- GI50 (SNB-19 CNS): 4.55 µM
- TGI (SNB-19 CNS): 26.9 µM
- GI50 (HCC-2998 colon): 2.6 µM
- TGI (HCC-2998 colon): 5.96 µM
- GI50 (M14 melanoma): 5.54 µM
- TGI (M14 melanoma): 22 µM
- GI50 (786-0 renal): 5.18 µM
- TGI (786-0 renal): 37 µM
- GI50 (HCT-116 colon): 3.56 µM
- TGI (HCT-116 colon): 13.6 µM
- GI50 (IGROV1 ovarian): 4.4 µM
- TGI (IGROV1 ovarian): 20.8 µM
- GI50 (UACC-62 melanoma): 3.06 µM
- TGI (UACC-62 melanoma): 12.9 µM
- GI50 (MDA-MB-435): 6.4 µM
- TGI (MDA-MB-435): 23.1 µM
- GI50 (A498 renal): 13.2 µM
- TGI (A498 renal): 41 µM
- GI50 (OVCAR-3 ovarian): 4.06 µM
- TGI (OVCAR-3 ovarian): 15 µM
- GI50 (SF-268 CNS): 10.8 µM
- TGI (SF-268 CNS): 46.8 µM
- GI50 (BT-549 breast): 4 µM
- TGI (BT-549 breast): 18.8 µM
- GI50 (KM12 colon): 4.25 µM
- TGI (KM12 colon): 17.6 µM
- GI50 (SF-539 CNS): 4.53 µM
- TGI (SF-539 CNS): 17.4 µM
- GI50 (T-47D breast): 1.81 µM
- TGI (T-47D breast): 4.58 µM
- GI50 (DU-145 prostate): 9.44 µM
- TGI (DU-145 prostate): 22.6 µM
